Results taken from article PMC10394516, “The pharmacokinetic profile of brensocatib and its effect on pharmacodynamic biomarkers including NE, PR3, and CatG in various rodent species” (Frontiers in Pharmacology, 2023).
Where two headings read alike, the source gives them in different places.

Assay: Plasma PK of brensocatib, BID vs QD oral dosing, BALB/c mice
Assay type: in vivo
Conditions: for half-life / AUC(0-t): both sexes, BALB/c, mouse, po
Procedure: A dose frequency study was performed in male and female mice (C57BL/6 & BALB/c) and in male and female rats (Sprague Dawley & Wistar) investigating twice daily (BID) versus once daily (QD) brensocatib administration.
Briefly, animals were weighed and randomized into different treatment groups. In total, three different dosing levels of brensocatib were tested in each species and strain; each QD dosing level was equivalent to 1.5-times the matching daily BID dose. For BID dosing, the second daily dose was administered 8-h post the morning dose. C57BL/6 mice were dosed either BID or QD for 7 consecutive days at 0/0, 0.5/0.75, 2/3, and 20/30 mg/kg/day (BID/QD). BALB/c mice were dosed for 7 consecutive days at 0/0, 0.2/0.3, 2/3, and 20/30 mg/kg/day (BID/QD). SD rats were dosed for 9 consecutive days at 0/0, 0.2/0.3, 2/3, and 20/30 mg/kg/day (BID/QD). Wistar rats were dosed for 7 consecutive days at 0/0, 0.2/0.3, 2/3, and 20/30 mg/kg/day (BID/QD).
For sparse PK analysis via LC-MS/MS, plasma was collected from animals during the first 24 h of dosing at prescribed timepoints. The timepoints included 1, 3, 8, and 24 h post initial dose for QD groups, and 1, 3, 8, 9, 11, and 24 h post initial dose for BID groups. Note that the 8- and 24-h plasma samples were prior to the afternoon dose for BID groups and prior to the second day dose for all groups, respectively. See section Quantification of Plasma Brensocatib Concentrations for details.
Blood was collected via the tail-vein technique and centrifuged to separate and collect the plasma. The resulting plasma samples were stored at −20°C or lower until LC-MS/MS analysis.
The plasma concentration of brensocatib was quantified by liquid chromatography, tandem mass spectrometry (LC-MS/MS), a Sciex API6500 mass spectrometer (SCIEX, Framingham, MA). Two brensocatib stock solutions were prepared, one for the preparation of the 8-point standard (STD) curve spiking solutions and the other for the preparation of the quantitative control spiking solutions (QCs) at three levels. The STD curve and QCs were prepared by 2% spiking from the spiking solutions into mouse or rat plasma. The samples were extracted using a protein precipitation method, where 10 µL of sample was mixed with 100 µL of internal standard working solution (100 ng/mL ^6C13-brensocatib in methanol), vortexed for 5 s, and centrifuged at 21,130 × g at 4°C for 15 min. The supernatant was mixed with an equal volume of water and 10 μL was injected into a Phenomenex Kinetex Biphenyl column (3.0 mm × 50 mm; 2.6 μm; 65°C; 0.8 mL/min) with an elution gradient consisting of mobile phase A (10 mM ammonium formate) and mobile phase B (methanol) over 2 min from 5% to 95% B. The mass spectrometer was equipped with an atmospheric-pressure chemical ionization source operating in positive mode.
Individual plasma concentrations were plotted and the area under the curve (AUC) was calculated using the trapezoid method. The elimination rate constant (k e ) was calculated as the negative natural log of the plasma concentration over time (Eq. 1) starting at the max concentration (C max) after the most recent dose to the last measurable plasma concentration between doses. The calculated k e was used to define the half-life (t 1/2 ) based on Eq. 2; where 0.693 is the natural log of 2 and assumes a first-order reaction. ke=−ln∆C/∆t (1) t1/2=0.693/ke (2)

half-life (0.2 mg/kg/day, oral BID, 0.2 mg/kg/day, evening dose, read-out: t1/2, PM dose (converted)): 0.67 ± 0.04 h
AUC(0-t) (0.2 mg/kg/day, oral BID, 0.2 mg/kg/day, first 24 h, read-out: AUC0–24h): 124 ± 31 ng·h/mL
AUC(0-t) (0.2 mg/kg/day, oral BID, 0.2 mg/kg/day, first 24 h, read-out: AUC(0–24)): 0.29 ± 0.07 µM·h
half-life (0.2 mg/kg/day, oral BID, 0.2 mg/kg/day, morning dose, read-out: t1/2, AM dose (converted)): 1.58 ± 0.72 h
AUC(0-t) (0.3 mg/kg/day, oral QD, 0.3 mg/kg/day, first 24 h, read-out: AUC0–24h): 188 ± 31 ng·h/mL
AUC(0-t) (0.3 mg/kg/day, oral QD, 0.3 mg/kg/day, first 24 h, read-out: AUC(0–24)): 0.45 ± 0.07 µM·h
half-life (0.3 mg/kg/day, oral QD, 0.3 mg/kg/day, read-out: t1/2, AM dose (converted)): 0.97 ± 0.03 h
half-life (2 mg/kg/day, oral BID, 2 mg/kg/day, evening dose, read-out: t1/2, PM dose (converted)): 1.19 ± 0.34 h
AUC(0-t) (2 mg/kg/day, oral BID, 2 mg/kg/day, first 24 h, read-out: AUC0–24h): 1510 ± 395 ng·h/mL
AUC(0-t) (2 mg/kg/day, oral BID, 2 mg/kg/day, first 24 h, read-out: AUC(0–24)): 3.59 ± 0.94 µM·h
half-life (2 mg/kg/day, oral BID, 2 mg/kg/day, morning dose, read-out: t1/2, AM dose (converted)): 3.22 ± 0.35 h
AUC(0-t) (3 mg/kg/day, oral QD, 3 mg/kg/day, first 24 h, read-out: AUC0–24h): 2960 ± 679 ng·h/mL
AUC(0-t) (3 mg/kg/day, oral QD, 3 mg/kg/day, first 24 h, read-out: AUC(0–24)): 7.04 µM·h
half-life (3 mg/kg/day, oral QD, 3 mg/kg/day, read-out: t1/2, AM dose (converted)): 0.83 ± 0.03 h
half-life (20 mg/kg/day, oral BID, 20 mg/kg/day, evening dose, read-out: t1/2, PM dose (converted)): 1.88 ± 0.06 h
AUC(0-t) (20 mg/kg/day, oral BID, 20 mg/kg/day, first 24 h, read-out: AUC0–24h): 24100 ng·h/mL
AUC(0-t) (20 mg/kg/day, oral BID, 20 mg/kg/day, first 24 h, read-out: AUC(0–24)): 57.3 ± 11.4 µM·h
half-life (20 mg/kg/day, oral BID, 20 mg/kg/day, morning dose, read-out: t1/2, AM dose (converted)): 2.47 ± 0.31 h
AUC(0-t) (30 mg/kg/day, oral QD, 30 mg/kg/day, first 24 h, read-out: AUC0–24h): 56300 ng·h/mL
AUC(0-t) (30 mg/kg/day, oral QD, 30 mg/kg/day, first 24 h, read-out: AUC(0–24)): 134 ± 41.1 µM·h
half-life (30 mg/kg/day, oral QD, 30 mg/kg/day, read-out: t1/2, AM dose (converted)): 2.56 ± 0.14 h
AUC(0–24) (oral QD, 3 mg/kg/day, first 24 h): 7.05 ± 1.61 µM·h
SMILES: Cn1c(=O)oc2ccc(-c3ccc(C[C@@H](C#N)NC(=O)[C@@H]4CNCCCO4)cc3)cc21 [brensocatib]
